Measurements from patent US20160206592A1, “METHOD FOR TREATING AMYOTROPHIC LATERAL SCLEROSIS BY INHIBITION OF CXCR4/CXCL12 SIGNALING” (RAMOT AT TEL-AVIV UNIVERSITY LTD., priority 2013, published 2016).
Where two headings read alike, the source gives them in different places.

Tests used:
[1] = test system: ZO-1, claudin 5, Occludin; settings: female SODG93A mice, 5 mg/kg s.c. twice a week from 50 days old, sacrificed at 110 days old
Method: FIGS. 9A-9C show Blood-CNS-Barrier markers levels following AMD3100 treatment. 50 days old female SODG93A mice were s.c injected with 5 mg/kg AMD3100 twice a week. On 110 days old mice were sacrificed and analyzed for B-CNS-B markers using western blot.
Endothelial cells play an important role in B-CNS-B function. B-CNS-B dysfunction is recognized to participate in neurodegenerative disorders. […] TJPs such as ZO-1, occludin and the claudin family exist in cerebral vascular endothelial cells, which are the most crucial factors modulating barrier integrity. […] The expression of TJPs has been reported to contribute to barrier function. ZO-1 and claudin-5 are the most important components for cell barrier integrity. Claudin-5 can greatly reduce dextran permeability and improve transendothelial electrical resistance and plays an essential role in the earliest stage of CNS angiogenesis. ZO-1 serves as a bridge between transmembrane proteins and skeleton proteins, and this interaction is important to the stability and function of endothelial barrier. […] All these three proteins are known to be reduced by 40%-60% in both animal models of ALS and humans, even prior to disease onset (Zhong et al., 2008).

activated microglia = settings: female SODG93A mice, 5 mg/kg s.c. twice a week from 50 days old, sacrificed at 110 days old
Method: 50 days old female SODG93A mice were s.c injected with 5 mg/kg AMD3100 twice a week. On 110 days old mice were sacrificed and analyzed using western blot for inflammatory markers of activated microglia. FIG. 7A. is cd36 levels. FIG. 7B. is Iba-1 levels.
Loss of upper and lower MNs results in progressive muscle paralysis and ultimately death due to respiratory failure. Although initially thought to derive from the selective loss of MNs, the pathogenic concept of non-cell autonomous disease has come to the fore front for the contribution of glial cells in ALS, in particular microglia. […] Conversely, activated microglia contributes and enhances MN death by secreting neurotoxic factors, and impaired microglial function at the end-stage may instead accelerate disease progression. However, the nature of microglial-neuronal interactions that lead to MN degeneration remains elusive.

transgenic G93A mice = settings: G93A female mice, s.c. once and twice a week
Source text: Six mice received AMD3100 once a week, eight mice received AMD3100 twice a week, and seven mice received PBS once a week.
For this purpose, the present inventors treated G93A female mice subcutaneously with either AMD3100 or PBS, starting at 70 days old. Six mice received AMD3100 once a week, eight mice received AMD3100 twice a week, and seven mice received PBS once a week.

[2] = test system: NSC-34 cells stably transfected with mutant SOD1; settings: 25 ug AMD3100, astrocytes from newborn SODG93A mice incubated 24 h, compared to other concentrations
Method: Primary astrocytes from 3 days old newborn SODG93A mice were incubated AMD3100 for 24 h. Media of treated astrocytes was then added to NSC-34 cells stably transfected with mutant SOD1.

[3] = test system: SOD1-G93A female and male mice
Method: FIGS. 4A-4C are graphs showing survival (Kaplan-Meier curves; P-value=0.0001) of SOD1-G93A female and male mice subcutaneously treated with either 5 mg/kg AMD3100 or PBS, starting at 50 days old; N=29 (AMD3100), N=16 (PBS).

[4] = females only, 5 mg/kg twice a week
[5] = males and females together, 5 mg/kg s.c., starting at 50 days old
[6] = males only, 5 mg/kg twice a week

With `c1cc(CN2CCCNCCNCCCNCC2)ccc1CN1CCCNCCNCCCNCC1` [AMD3100, 1,1′-[1,4-Phenylenebis(methylene)]bis-1,4,8,11-tetraazacyclotetradecane] the Occludin levels [1] was “effective in restoring the expression”, the ZO-1 levels [1] was “effective in restoring the expression” and the “claudin 5 levels” value [1] was “effective in restoring the expression”. The Iba-1 levels (activated microglia) was “significant reduction”, the cd36 levels (activated microglia) was “significant reduction” and the “extension of survival compared with control (PBS) mice” value (transgenic G93A mice) was “about 14 days”. The age at death (transgenic G93A mice; starting at 70 days old) was roughly 170 days old, the “survival of motor neuron like cells” value [2] was “increased the survival” and the mean survival [3, 4] was 146 days. The median survival [3, 4] was 144 days, the “survival (versus PBS)” value [3, 4] was 14 days and the mean survival [3, 5] was 144 days. The median survival [3, 5] was 143 days, the “survival according to Kaplan-Meier curve (versus PBS)” value [3, 5] was 12 days and the mean survival [3, 6] was 141 days. The median survival [3, 6] was 139 days and the “survival (versus PBS)” value [3, 6] was 8 days.
